# Measurements: ChEMBL document CHEMBL1201862, “PubChem BioAssay data set” (2004)
# Active and inactive are the calls of the source. Rule as the data show it, for most assays here: actives have a measured EC50 and inactives only a lower limit.
# Key:
# [1] = target: T1, Long-chain-fatty-acid--AMP ligase FadD28 (Mycobacterium tuberculosis, UniProt P9WQ59); experiment: Fluorescence polarization aasay to screen for inhibitors that compete for the binding of FadD28 to a bisubstrate Measured in Biochemical System Using Plate Reader - 2147-01_Inhibitor_Dose_CherryPick_Activity.; assay type: functional, Mycobacterium tuberculosis H37Rv
# T1 sequence (P9WQ59 whole entry): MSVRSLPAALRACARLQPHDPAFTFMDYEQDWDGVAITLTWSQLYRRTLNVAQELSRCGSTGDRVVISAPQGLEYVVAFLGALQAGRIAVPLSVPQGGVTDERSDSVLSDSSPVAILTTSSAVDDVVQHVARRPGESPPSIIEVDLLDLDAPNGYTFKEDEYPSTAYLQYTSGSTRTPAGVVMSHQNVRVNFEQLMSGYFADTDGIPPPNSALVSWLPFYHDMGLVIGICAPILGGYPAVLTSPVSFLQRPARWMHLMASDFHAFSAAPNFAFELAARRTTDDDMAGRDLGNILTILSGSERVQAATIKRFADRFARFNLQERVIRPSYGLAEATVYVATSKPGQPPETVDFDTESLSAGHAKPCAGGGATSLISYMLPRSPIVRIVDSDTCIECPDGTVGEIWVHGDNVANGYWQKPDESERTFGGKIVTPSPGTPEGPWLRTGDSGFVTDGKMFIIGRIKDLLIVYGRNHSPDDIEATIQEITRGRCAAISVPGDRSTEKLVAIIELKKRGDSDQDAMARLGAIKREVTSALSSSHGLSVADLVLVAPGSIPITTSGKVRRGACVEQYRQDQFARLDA
# [2] = tested on: BJ; experiment: BJ-TERT-LT-ST fibroblast viability loss – cell-based, RAS-independent, luminescence, dose response (AID 1935); assay type: functional; settings: Homo sapiens;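 also: BJ fibroblasts immortalized with TERT plus LT and ST oncogenes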
# [3] = tested on: BJ; experiment: BJ-TERT fibroblast viability loss – cell-based, RAS-independent, luminescence, dose response (AID 1933); assay type: functional; settings: Homo sapiens
# [4] = tested on: BJ; experiment: cells; assay type: functional, cell-based; settings: Homo sapiens
# [5] = Luminescence Cell-Based Dose Response HTS to Identify Inhibitors of 5'UTR Stem-Loop Driven Prion Protein mRNA Translation in H4 Neuroglioblastoma Cells. [Related pubchem assays: 1827 (Project Summary), 1813 (Primary HTS)]; assay type: functional
# [6] = Trypanosoma cruzi growth suppression in host cells – NIH3T3 host cells, beta-gal luminescence, confirmation (AID 2044); assay type: functional, cell-based;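 also: intracellular parasites grown in NIH/3T3 mouse fibroblasts as host cells; luminescent beta-galactosidase reporter signal from transgenic T. cruzi replicating inside host cells; inhibitors lower the luminescence signal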
# [7] = target: Nonstructural protein 1 (Influenza A virus, UniProt Q194T2); assay type: functional, Influenza A virus (A/California/07/2009(H1N1))
# [8] = microbe, parasite or virus in culture; assay type: functional; settings: Mycobacterium tuberculosis
# [9] = tested on: Streptococcus sp. 'group A'; experiment: Streptococcus pyogenes SK(-)GAS viability under kanamycin – luminescence, BacTiterGlo, confirmation, counter-screen for streptokinase expression inhibitor project, dose response (AID 1900); assay type: functional, organism-based
# [10] = luciferase reporter signal suppression in cells – H4 neuroglioma cells, luminescence, dose response (AID 1990); assay type: functional, cell-based
# [11] = tested on: Jurkat; experiment: blockers of NF-kB activation in T cells – Jurkat, luciferase reporter, luminescence, B- and T-cell, dose response (AID 489004); assay type: functional, cell-based; settings: Homo sapiens;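 also: NF-kB luciferase reporter Jurkat cells stimulated with PMA plus ionomycin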
# [12] = target: T2, Streptokinase A (Streptococcus pyogenes serotype M1, UniProt P10520); experiment: viability-normalized secreted streptokinase activity reduction – plasminogen activation absorbance, OD405, dose response (AID 1914); assay type: functional, Streptococcus pyogenes M1 GAS;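 also: secreted streptokinase activity via plasminogen activation per viability signal from cell pellet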
# T2 sequence (P10520 whole entry): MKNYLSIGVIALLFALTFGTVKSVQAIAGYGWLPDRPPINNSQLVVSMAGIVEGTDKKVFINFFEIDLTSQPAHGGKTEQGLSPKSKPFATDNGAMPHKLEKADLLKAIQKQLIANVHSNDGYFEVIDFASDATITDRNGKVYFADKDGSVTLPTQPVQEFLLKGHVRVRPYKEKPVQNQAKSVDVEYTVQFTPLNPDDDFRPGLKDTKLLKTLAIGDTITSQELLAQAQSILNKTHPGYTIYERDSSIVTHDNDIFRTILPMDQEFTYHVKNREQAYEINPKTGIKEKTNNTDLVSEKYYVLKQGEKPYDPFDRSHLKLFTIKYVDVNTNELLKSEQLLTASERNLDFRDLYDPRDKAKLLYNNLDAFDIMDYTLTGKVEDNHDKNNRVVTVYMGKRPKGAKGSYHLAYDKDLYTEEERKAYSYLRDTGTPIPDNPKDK
# [13] = cells
# [14] = alpha-synuclein stem-loop luciferase translation blockers – H4 neuroglioma cells, luminescence, confirmation (AID 1988); assay type: functional, cell-based
# [15] = DRD fibroblast viability loss – cell-based, non-viral oncogenic, luminescence, dose response (AID 1934); assay type: functional; settings: Homo sapiens
# [16] = tested on: Streptococcus; experiment: GAS UMAA2166 growth inhibition – luminescence, BacTiterGlo, counter-screen for streptokinase expression inhibitor project, dose response (AID 1915); assay type: functional, organism-based;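 also: potency for reduction of bacterial viability or growth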
# [17] = fluconazole-exposed Candida albicans growth modulators – fluorescence, retest, confirmation (AID 2467); assay type: functional, cell-based
# [18] = HEK-293T viability loss, compound-treated – cell-based, uHTS hits, cytotoxicity control for B/T-cell NF-kB inhibitor project, dose response (AID 489019); assay type: functional;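 also: IC50 reflects cytotoxicity as loss of cell viability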
# [19] = NIH-3T3 fibroblast cytotoxicity, dose response, cytotoxicity control, cell-based, fluorescence, Alamar Blue, secondary assay (AID 2327); assay type: functional;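 also: NIH-3T3 mouse fibroblasts cultured with fluconazole at 8 µg/mL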
# [20] = NIH3T3 cell viability loss – ATP luminescence, mouse fibroblasts, counter-screen, dose response (AID 2010); assay type: functional, cell-based;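 also: cells exposed to compound for about 90 hours before reading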
# [21] = target: T3, RNA-binding protein pos-1 (Caenorhabditis elegans, UniProt G5EF15); experiment: disruptors of C. elegans POS-1 RNA interaction – biochemical, fluorescence polarization, dose response (AID 1964);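 also: purified POS-1 fused to maltose binding protein made in E. coli; potency of compounds blocking POS-1 binding to fluorescent RNA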
# T3 sequence (G5EF15 whole entry): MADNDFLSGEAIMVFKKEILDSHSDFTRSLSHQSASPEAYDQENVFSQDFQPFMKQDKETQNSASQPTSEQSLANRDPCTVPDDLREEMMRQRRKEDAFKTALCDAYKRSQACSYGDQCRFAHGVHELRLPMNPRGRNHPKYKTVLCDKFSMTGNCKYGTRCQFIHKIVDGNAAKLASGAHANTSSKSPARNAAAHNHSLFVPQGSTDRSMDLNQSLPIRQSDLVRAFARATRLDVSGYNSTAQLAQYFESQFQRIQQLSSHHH
# [22] = target: T4, Zinc finger protein mex-5 (Caenorhabditis elegans, UniProt Q9XUB2); experiment: potency of MEX-5 RNA-binding blockers – biochemical, C. elegans, fluorescence polarization, dose response (AID 1960)
# T4 sequence (Q9XUB2 whole entry): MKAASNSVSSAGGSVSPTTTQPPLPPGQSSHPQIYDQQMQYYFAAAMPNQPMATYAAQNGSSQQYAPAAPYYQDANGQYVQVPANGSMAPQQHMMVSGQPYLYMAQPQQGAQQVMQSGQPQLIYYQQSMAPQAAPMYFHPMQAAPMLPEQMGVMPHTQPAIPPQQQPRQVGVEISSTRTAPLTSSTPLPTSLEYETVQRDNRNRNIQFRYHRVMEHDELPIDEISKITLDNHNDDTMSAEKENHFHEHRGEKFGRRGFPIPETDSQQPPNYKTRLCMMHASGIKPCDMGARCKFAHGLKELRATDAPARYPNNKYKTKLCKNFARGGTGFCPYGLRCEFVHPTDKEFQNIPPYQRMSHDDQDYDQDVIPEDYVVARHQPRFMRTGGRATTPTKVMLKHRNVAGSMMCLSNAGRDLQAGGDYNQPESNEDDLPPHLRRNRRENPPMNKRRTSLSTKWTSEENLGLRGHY
# [23] = target: T5, Replicative DNA helicase DnaB (Mycobacterium tuberculosis, UniProt P9WMR3); experiment: DnaB intein splicing inhibitors, dose response, biochemical, cell-free fluorescence (AID 449749); assay type: functional
# T5 sequence (P9WMR3 whole entry): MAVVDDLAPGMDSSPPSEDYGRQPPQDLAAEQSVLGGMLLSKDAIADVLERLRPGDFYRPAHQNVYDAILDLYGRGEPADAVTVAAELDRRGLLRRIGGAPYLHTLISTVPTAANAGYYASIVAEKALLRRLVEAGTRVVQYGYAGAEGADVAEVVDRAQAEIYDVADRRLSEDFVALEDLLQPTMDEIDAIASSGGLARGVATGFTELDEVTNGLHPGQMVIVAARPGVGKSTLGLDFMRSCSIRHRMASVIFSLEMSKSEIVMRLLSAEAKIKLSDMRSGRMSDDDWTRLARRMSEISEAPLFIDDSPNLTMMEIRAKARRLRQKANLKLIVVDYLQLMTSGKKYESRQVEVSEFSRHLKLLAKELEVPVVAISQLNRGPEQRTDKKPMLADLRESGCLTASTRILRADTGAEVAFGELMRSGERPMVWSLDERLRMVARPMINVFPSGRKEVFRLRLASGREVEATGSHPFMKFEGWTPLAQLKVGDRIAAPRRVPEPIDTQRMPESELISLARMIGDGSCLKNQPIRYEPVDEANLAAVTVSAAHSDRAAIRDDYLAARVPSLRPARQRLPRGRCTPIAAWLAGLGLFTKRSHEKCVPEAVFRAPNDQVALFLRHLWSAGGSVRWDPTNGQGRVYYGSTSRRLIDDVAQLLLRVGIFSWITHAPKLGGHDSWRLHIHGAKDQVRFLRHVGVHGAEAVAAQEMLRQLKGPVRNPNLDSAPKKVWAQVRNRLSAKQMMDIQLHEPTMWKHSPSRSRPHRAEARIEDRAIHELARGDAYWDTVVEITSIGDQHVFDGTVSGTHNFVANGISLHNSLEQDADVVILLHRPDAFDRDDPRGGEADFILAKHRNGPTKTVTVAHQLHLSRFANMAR
# [24] = target: T6, Protein RecA (Mycobacterium tuberculosis, UniProt P9WHJ3); experiment: Fluorescence Cell-Free Homogeneous Dose Retest to Identify Inhibitors of RecA-Intein Splicing Activity. [Related pubchem assays (depositor defined):AID2097, AID2223, AID489010, AID492950]; assay type: functional
# T6 sequence (P9WHJ3 whole entry): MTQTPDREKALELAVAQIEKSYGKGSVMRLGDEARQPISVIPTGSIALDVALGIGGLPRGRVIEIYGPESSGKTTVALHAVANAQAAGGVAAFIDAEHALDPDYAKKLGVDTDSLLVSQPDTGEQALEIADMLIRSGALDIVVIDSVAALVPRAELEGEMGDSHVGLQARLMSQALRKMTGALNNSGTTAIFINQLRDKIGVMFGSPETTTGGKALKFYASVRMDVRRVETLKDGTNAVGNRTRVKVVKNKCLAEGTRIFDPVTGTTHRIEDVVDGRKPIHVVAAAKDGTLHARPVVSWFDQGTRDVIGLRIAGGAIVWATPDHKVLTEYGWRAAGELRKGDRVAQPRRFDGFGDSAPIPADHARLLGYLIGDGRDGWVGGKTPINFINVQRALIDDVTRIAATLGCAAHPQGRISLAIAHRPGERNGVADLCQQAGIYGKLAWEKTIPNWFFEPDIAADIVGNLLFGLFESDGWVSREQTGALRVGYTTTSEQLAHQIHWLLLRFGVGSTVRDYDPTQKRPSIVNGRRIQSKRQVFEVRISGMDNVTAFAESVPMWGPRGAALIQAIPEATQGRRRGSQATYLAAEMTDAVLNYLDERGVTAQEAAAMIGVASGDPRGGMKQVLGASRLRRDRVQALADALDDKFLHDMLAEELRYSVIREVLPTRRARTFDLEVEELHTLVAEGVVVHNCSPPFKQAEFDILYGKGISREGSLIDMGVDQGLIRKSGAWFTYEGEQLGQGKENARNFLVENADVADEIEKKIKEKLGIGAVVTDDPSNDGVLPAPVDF
# [25] = target: T7, Mannose-6-phosphate isomerase (Homo sapiens, UniProt P34949); experiment: MPI inhibition at elevated mannose 6-phosphate – biochemical, fluorescence intensity, high mannose 6-phosphate, primary screen (AID 1220)
# T7 sequence (P34949 whole entry): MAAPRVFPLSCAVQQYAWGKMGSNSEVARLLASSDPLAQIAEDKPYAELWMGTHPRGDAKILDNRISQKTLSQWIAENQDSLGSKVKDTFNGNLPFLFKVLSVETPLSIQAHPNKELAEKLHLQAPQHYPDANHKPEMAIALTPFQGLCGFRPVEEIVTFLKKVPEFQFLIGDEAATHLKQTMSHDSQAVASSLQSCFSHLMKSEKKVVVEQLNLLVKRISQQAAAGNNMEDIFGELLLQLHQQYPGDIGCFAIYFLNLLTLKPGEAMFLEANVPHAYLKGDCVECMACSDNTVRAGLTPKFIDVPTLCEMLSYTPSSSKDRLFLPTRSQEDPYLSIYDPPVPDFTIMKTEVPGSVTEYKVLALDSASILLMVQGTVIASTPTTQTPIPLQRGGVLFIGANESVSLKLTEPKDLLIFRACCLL
# [26] = target: Induced myeloid leukemia cell differentiation protein Mcl-1 (Homo sapiens, UniProt Q07820); assay type: functional
# Chain of Induced myeloid leukemia cell differentiation protein Mcl-1 (Q07820 whole entry): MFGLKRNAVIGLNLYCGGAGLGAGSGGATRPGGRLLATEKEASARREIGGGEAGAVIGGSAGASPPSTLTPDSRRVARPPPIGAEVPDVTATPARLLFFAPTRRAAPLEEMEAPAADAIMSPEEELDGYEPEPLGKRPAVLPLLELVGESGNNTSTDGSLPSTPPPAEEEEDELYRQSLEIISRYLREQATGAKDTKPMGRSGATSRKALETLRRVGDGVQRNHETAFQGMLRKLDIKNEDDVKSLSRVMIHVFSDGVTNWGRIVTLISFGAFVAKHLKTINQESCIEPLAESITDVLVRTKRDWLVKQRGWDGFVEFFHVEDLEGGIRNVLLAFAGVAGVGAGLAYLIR
# Chain of Nonstructural protein 1 (Q194T2 whole entry): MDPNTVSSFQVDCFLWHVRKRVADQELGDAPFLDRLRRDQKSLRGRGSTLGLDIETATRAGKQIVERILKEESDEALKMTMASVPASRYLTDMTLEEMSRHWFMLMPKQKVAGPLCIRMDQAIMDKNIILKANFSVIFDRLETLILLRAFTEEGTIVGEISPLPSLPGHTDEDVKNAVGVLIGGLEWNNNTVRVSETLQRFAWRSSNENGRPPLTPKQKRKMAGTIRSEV
smiles,measurement,setting,value
C[n+]1c(-c2ccccc2)c2cc(N)ccc2c2ccc(N)cc21,AC50,[1],> 100 µM (inactive)
same,EC50,[2],10.5 µM (active)
same,EC50,[3],3.61 µM (active)
same,EC50,[4],6.25 µM (active)
same,EC50,[5],20.1 µM (active)
same,EC50,[6],< 0.1 µM (active)
same,IC50,[7],30.5 µM (active)
same,CC50,[8],> 40 µM (active)
same,EC50,[9],1.29 µM (active)
same,EC50,[10],> 120 µM (not active)
same,IC50,[11],> 80 µM (inactive)
same,EC50,[12],> 150 µM (not active)
same,EC50,[13],0.011 µM (active)
same,EC50,[14],9.48 µM (active)
same,EC50,[15],7.32 µM (active)
same,EC50,[16],5.67 µM (active)
same,EC50,[17],0.121 µM (active)
same,IC50,[18],> 80 µM (inactive)
same,EC50,[19],> 160 µM (inconclusive)
same,EC50,[20],12.3 µM (active)
CN1C=C/C(=C\c2cc[n+](C)c3ccccc23)c2ccccc21,EC50,[21],65.7 µM (active)
same,EC50,[22],40 µM (inconclusive)
same,EC50,[5],8.89 µM (active)
same,EC50,[6],< 0.1 µM (active)
same,EC50,[10],9.17 µM (active)
same,EC50,[13],< 0.004 µM (active)
same,EC50,[14],6.93 µM (active)
same,AC50,[23],121 µM (active)
same,EC50,[24],1.48 µM (active)
same,IC50,[25],> 50 µM (not active)
same,EC50,[20],> 60 µM (not active)
same,IC50,[26],13 µM (active)
